This is an account of results in ChEMBL document CHEMBL1165990, “Semi-synthetic analogues of thiostrepton delimit the critical nature of tail region modifications in the control of protein biosynthesis and antibacterial activity” (Bioorg Med Chem, 2010).

Series [1] concerns Escherichia coli. Kind of series: Antibacterial activity against Escherichia coli assessed as inhibition of protein synthesis at 0.1 to 0.4 uM after 60 mins by luminescence assay. The format is functional, organism-based.
Series [2] concerns Staphylococcus aureus. The series is described as follows: Antibacterial activity against Staphylococcus aureus ATCC 6338 by NCCLS method. Type of series: functional.
Series [3] relates to Bacillus subtilis. The series is described as follows: Antibacterial activity against Bacillus subtilis ATCC 6633 by NCCLS method. Type of series: functional.
In series [4] the test system is Escherichia coli. The series is described as follows: Antibacterial activity against Escherichia coli by NCCLS method. The format is functional.
Series [5] can be described thus: Aqueous solubility of the compound. The format is physicochemical. To be noted: buffer.
The subject of series [6] is Escherichia coli. The series is described as follows: Antibacterial activity against Escherichia coli assessed as inhibition of protein synthesis after 60 mins by luminescence assay. The format is functional, organism-based.
Series [7] relates to Escherichia coli. The series is described as follows: Antibacterial activity against Escherichia coli assessed as inhibition of protein synthesis at 0.01 to 0.96 uM after 60 mins by luminescence assay. Type of series: functional, organism-based.
The test system of series [8] is Bacillus subtilis. Kind of series: Antibacterial activity against Bacillus subtilis ATCC 6633 by disk diffusion assay. Type of series: functional. A general note: A growth-free zone around the sample is the usual read-out of agar diffusion tests.
Series [9] concerns Escherichia coli. The series is described as follows: Antibacterial activity against Escherichia coli by disk diffusion assay. Type of series: functional.
In series [10] the test system is Staphylococcus aureus. Kind of series: Antibacterial activity against Staphylococcus aureus ATCC 6338 by disk diffusion assay. The format is functional.

Active and inactive are the calls of the source. The rule behind the calls is not given here. Bounds are passed on as bounds.

As usually defined, the MIC is the lowest concentration that inhibits growth of the organism.

For `C=C(NC(=O)c1csc(C2=N[C@@H]3c4csc(n4)[C@H]4NC(=O)c5csc(n5)[C@H]([C@](C)(O)[C@H](C)O)NC(=O)[C@H]5CSC(=N5)/C(=C/C)NC(=O)[C@H]([C@@H](C)O)NC(=O)c5csc(n5)[C@]3(CC2)NC(=O)[C@H](C)NC(=O)C(=C)NC(=O)[C@H](C)NC(=O)[C@H]([C@@H](C)CC)N[C@@H]2C=Cc3c([C@H](C)O)cc(nc3[C@H]2O)C(=O)O[C@@H]4C)n1)C(=O)NC(CSC[C@@H](C)C(=O)N1CCC[C@H]1C(=O)O)C(N)=O` (stereo in doubt; 3), the inhibition entry in the series with Escherichia coli [1] was “Active”.
Consider `C=C(NC(=O)c1csc(C2=N[C@@H]3c4csc(n4)[C@H]4NC(=O)c5csc(n5)[C@H]([C@](C)(O)[C@H](C)O)NC(=O)[C@H]5CSC(=N5)/C(=C/C)NC(=O)[C@H]([C@@H](C)O)NC(=O)c5csc(n5)[C@]3(CC2)NC(=O)[C@H](C)NC(=O)C(=C)NC(=O)[C@H](C)NC(=O)[C@H]([C@@H](C)CC)N[C@@H]2C=Cc3c([C@H](C)O)cc(nc3[C@H]2O)C(=O)O[C@@H]4C)n1)C(=O)NC(CSC[C@@H](C)C(=O)N1CCC[C@H]1C(=O)O)C(N)=O` (stereo in doubt; 4) [listing 1 of 2 here], for which the MIC in the series on Staphylococcus aureus [2] is no more than 32 µg/mL; in the series on Bacillus subtilis [3], no more than 32 µg/mL; against Escherichia coli [4] it was no less than 128 µg/mL.
On to `C=C(NC(=O)c1csc(C2=N[C@@H]3c4csc(n4)[C@H]4NC(=O)c5csc(n5)[C@H]([C@](C)(O)[C@H](C)O)NC(=O)[C@H]5CSC(=N5)/C(=C/C)NC(=O)[C@H]([C@@H](C)O)NC(=O)c5csc(n5)[C@]3(CC2)NC(=O)[C@H](C)NC(=O)C(=C)NC(=O)[C@H](C)NC(=O)[C@H]([C@@H](C)CC)N[C@@H]2C=Cc3c([C@H](C)O)cc(nc3[C@H]2O)C(=O)O[C@@H]4C)n1)C(=O)NC(CSCCS(=O)(=O)O)C(N)=O` (stereo partly drawn), for which the solubility result in series [5] is “Soluble”. The MIC in the series with Staphylococcus aureus [2] is no more than 2 µg/mL; in the series with Bacillus subtilis [3] it was no more than 8 µg/mL; in the series with Escherichia coli [4], no less than 128 µg/mL. Further, the inhibition result in the series with Escherichia coli [6] was “Dose-dependent effect”. The inhibition result in the series on Escherichia coli [1] was “Active”.
With `C=C(NC(=O)C(=C)NC(=O)c1csc(C2=N[C@@H]3c4csc(n4)[C@H]4NC(=O)c5csc(n5)[C@H]([C@](C)(O)[C@@H](C)O)NC(=O)[C@H]5CSC(=N5)/C(=C/C)NC(=O)[C@H]([C@@H](C)O)NC(=O)c5csc(n5)[C@]3(CC2)NC(=O)[C@H](C)NC(=O)C(=C)NC(=O)[C@H](C)NC(=O)[C@H]([C@@H](C)CC)N[C@@H]2C=Cc3c([C@H](C)O)cc(nc3[C@H]2O)C(=O)O[C@@H]4C)n1)C(N)=O` [THIOSTREPTON], the MIC in the series on Staphylococcus aureus [2] was no more than 0.0625 µg/mL; with Bacillus subtilis [3], no more than 0.25 µg/mL; in the series with Escherichia coli [4], no less than 32 µg/mL. In addition, the inhibition result with Escherichia coli [7] was “Active”.
Consider `C=C(NC(=O)c1csc(C2=N[C@@H]3c4csc(n4)[C@H]4NC(=O)c5csc(n5)[C@H]([C@](C)(O)[C@H](C)O)NC(=O)[C@H]5CSC(=N5)/C(=C/C)NC(=O)[C@H]([C@@H](C)O)NC(=O)c5csc(n5)[C@]3(CC2)NC(=O)[C@H](C)NC(=O)C(=C)NC(=O)[C@H](C)NC(=O)[C@H]([C@@H](C)CC)N[C@@H]2C=Cc3c([C@H](C)O)cc(nc3[C@H]2O)C(=O)O[C@@H]4C)n1)C(=O)NC(CSC[C@@H](C)C(=O)N1CCC[C@H]1C(=O)O)C(N)=O` (stereo in doubt; 4) [listing 2 of 2 here], for which the inhibition entry in the series on Escherichia coli [1] is “Active”.
Consider `C=C(NC(=O)c1csc(C2=N[C@@H]3c4csc(n4)[C@H]4NC(=O)c5csc(n5)[C@H]([C@](C)(O)[C@H](C)O)NC(=O)[C@H]5CSC(=N5)/C(=C/C)NC(=O)[C@H]([C@@H](C)O)NC(=O)c5csc(n5)[C@]3(CC2)NC(=O)[C@H](C)NC(=O)C(=C)NC(=O)[C@H](C)NC(=O)[C@H]([C@@H](C)CC)N[C@@H]2C=Cc3c([C@H](C)O)cc(nc3[C@H]2O)C(=O)O[C@@H]4C)n1)C(=O)NC(CS[C@@H]1O[C@H](CO)[C@@H](O)[C@H](O)[C@H]1O)C(N)=O` (stereo partly drawn), for which the MIC in the series on Bacillus subtilis [8], in the series on Escherichia coli [9] and against Staphylococcus aureus [10] was no less than 50 µg/mL in each case.
